In patent US20240002332A1, “Small Molecule Inhibitors of SARS-CoV-2 Infections” (priority 2020, published 2024):
“And” between values parts separate entries of the source, which are not always exact repeats. Equal entries are not always repeated. Where two headings read alike, the source gives them in different places.

How the values were obtained:
[1] = Pharmacokinetics in male hamsters, plasma and lung, IV 3 mg/kg or PO 30 mg/kg; details: for Kp at 0.083 h / Kp at 4 h / Kp at 2 h / Kp at 8 h / Kp at 0.5 h / Kp at 1 h / Kp at […]: Ratio (Lung/Plasma)
Procedure: Compound P3 was administered intravenously (3 mg/kg dosing in 20% HP-β-CD in water) or orally (30 mg/kg dosing in 20% HP-β-CD in water).

[2] = tested on: Vero-E6; experiment: Cytotoxicity counter screen (cell viability, CellTiter-Glo); type: cell-based
Procedure: Compound cytotoxicity was assessed in a BSL-2 counter screen as follows: Cell culture media (MEM, 1% Pen/Strep/GlutaMax, 1% HEPES, 2% HI FBS) was dispensed at 5 μl/well into ARPs and incubated at room temperature to allow for compound dissolution. Vero-E6 (selected for high ACE2 expression) was dispensed into assay plates at 4000 cells/well in 25 μl media. Assay plates were incubated for 72 h at 37 C, 5% CO2, 90% humidity. Then, 30 μl/well of CellTiter-Glo (Promega #G7573) was dispensed into the assay plate. Luminescence was read using a BMG PHERAstar plate reader following incubation at room temperature for 10 min to measure cell viability.

[3] = Compound P3 in plasma, C57BL/6 mice
[4] = Compound P3 IV 3 mg/kg, 0.083 h, individual animals, 3 mg/kg
[5] = Compound P3 IV 3 mg/kg, 4 h, individual animals, 3 mg/kg
[6] = Compound P3 IV 3 mg/kg, 8 h, individual animals, 3 mg/kg
[7] = Compound P3 IV 3 mg/kg, 24 h, individual animals, 3 mg/kg
[8] = Compound P3 PO 30 mg/kg, 0.5 h, individual animals, 30 mg/kg
[9] = Compound P3 PO 30 mg/kg, 1 h, individual animals, 30 mg/kg
[10] = Compound P3 PO 30 mg/kg, 2 h, individual animals, 30 mg/kg
[11] = Compound P3 PO 30 mg/kg, 4 h, individual animals, 30 mg/kg
[12] = Compound P3 PO 30 mg/kg, 8 h, individual animals, 30 mg/kg
[13] = Compound P3 intravenously or orally
[14] = PO 50 mg/kg (PO_A), individual mice, 50 mg/kg
[15] = PO 100 mg/kg (PO_B), individual mice, 100 mg/kg

For O=C(Nc1ccc([N+](=O)[O-])cc1Cl)c1cc(Cl)ccc1OC(=O)N1CCNCC1 [Compound P3, 4-chloro-2-((2-chloro-4-nitrophenyl)carbamoyl)phenyl piperazine-1-carboxylate], the “Lung” value [1, 4] was 15360 ng/g and 23120 ng/g, the “Ratio (Lung/Plasma)” value [1, 4] was 36.0 and 31.0 and the “Lung” value [1, 5] was 1436 ng/g and 2904 ng/g and 1800 ng/g. The “Ratio (Lung/Plasma)” value [1, 5] was 111 and 59.4, the “Lung” value [1, 6] was 263 ng/g and 275 ng/g and the “Ratio (Lung/Plasma)” value [1, 6] was 45.3 and 76.3 and 109. The plasma concentration ([1]; Compound P3 IV 3 mg/kg, 24 h, individual animals) was “BLOQ”, the “Lung” value [1, 7] was 8.44 ng/g and 3.59 ng/g and the “lung concentration, Conc. (ng/mL)” value [1, 7] was “BLOQ”. The “Lung” value [1, 8] was 113200 ng/g and 72400 ng/g and 33400 ng/g, the “Ratio (Lung/Plasma)” value [1, 8] was 53.2 and 59.7 and the “Lung” value [1, 9] was 82400 ng/g and 105600 ng/g. The “Ratio (Lung/Plasma)” value [1, 9] was 69.2 and 130, the “Lung” value [1, 10] was 102000 ng/g and 74400 ng/g and the “Ratio (Lung/Plasma)” value [1, 10] was 96.2 and 108. For the same molecule, the “Lung” value [1, 11] was 48800 ng/g and 65200 ng/g, the “Ratio (Lung/Plasma)” value [1, 11] was 215 and 97.6 and 73.2 and the “Lung” value [1, 12] was 6800 ng/g and 2928 ng/g and 7080 ng/g. The “Ratio (Lung/Plasma)” value [1, 12] was 191 and 311, the plasma concentration ([1]; Compound P3 PO 30 mg/kg, 24 h, individual animals) was “BLOQ” and the “Lung” value ([1]; Compound P3 PO 30 mg/kg, 24 h, individual animals, 30 mg/kg) was 38.2 ng/g and 22.6 ng/g and 11.1 ng/g. The “amount of active metabolite in lung tissue relative to plasma concentration” value [1, 13] was “significantly higher amount of active metabolite in lung tissue”, the “overall concentration of active metabolite” value [1, 13] was “provided a higher overall concentration of active metabolite” and the concentration at 0.083 h ([1]; male, hamster, in vivo, iv, 3 mg/kg, Lung (ng/g), Compound P3 IV 3 mg/kg, 0.083 h, individual animals) was 27400 ng/g. The concentration at 8 h ([1]; male, hamster, in vivo, iv, 3 mg/kg, Lung (ng/g), Compound P3 IV 3 mg/kg, 8 h, individual animals) was 270 ng/g, the Kp at 0.083 h ([1]; male, hamster, in vivo, iv, 3 mg/kg, Compound P3 IV 3 mg/kg, 0.083 h, individual animals) was 34.1 and the Kp at 4 h ([1]; male, hamster, in vivo, iv, 3 mg/kg, Compound P3 IV 3 mg/kg, 4 h, individual animals) was 68.4. The Kp at 0.083 h ([1]; male, hamster, in vivo, iv, 3 mg/kg, Mean, Compound P3 IV 3 mg/kg, 0.083 h) was 33.7, the Kp at 2 h ([1]; male, hamster, in vivo, iv, 3 mg/kg, Mean, Compound P3 IV 3 mg/kg, 2 h) was 81 and the Kp at 4 h ([1]; male, hamster, in vivo, iv, 3 mg/kg, Mean, Compound P3 IV 3 mg/kg, 4 h) was 80. For the same molecule, the Kp at 8 h ([1]; male, hamster, in vivo, iv, 3 mg/kg, Mean, Compound P3 IV 3 mg/kg, 8 h) was 77, the concentration at 1 h ([1]; male, hamster, in vivo, po, 30 mg/kg, Lung (ng/g), Compound P3 PO 30 mg/kg, 1 h, individual animals) was 106000 ng/g and the concentration at 2 h ([1]; male, hamster, in vivo, po, 30 mg/kg, Lung (ng/g), Compound P3 PO 30 mg/kg, 2 h, individual animals) was 67600 ng/g. The concentration at 4 h ([1]; male, hamster, in vivo, po, 30 mg/kg, Lung (ng/g), Compound P3 PO 30 mg/kg, 4 h, individual animals) was 65600 ng/g, the Kp at 0.5 h ([1]; male, hamster, in vivo, po, 30 mg/kg, Compound P3 PO 30 mg/kg, 0.5 h, individual animals) was 89.1 and the Kp at 1 h ([1]; male, hamster, in vivo, po, 30 mg/kg, Compound P3 PO 30 mg/kg, 1 h, individual animals) was 98.1. It also gave a Kp at 2 h ([1]; male, hamster, in vivo, po, 30 mg/kg, Compound P3 PO 30 mg/kg, 2 h, individual animals) of 88.6, a Kp at 8 h ([1]; male, hamster, in vivo, po, 30 mg/kg, Compound P3 PO 30 mg/kg, 8 h, individual animals) of 194 and a Kp at […] ([1]; male, hamster, in vivo, po, 30 mg/kg, Compound P3 PO 30 mg/kg, individual animals) of 34.8. It also gave a Kp at 0.5 h ([1]; male, hamster, in vivo, po, 30 mg/kg, Mean, Compound P3 PO 30 mg/kg, 0.5 h) of 67.4, a Kp at 1 h ([1]; male, hamster, in vivo, po, 30 mg/kg, Mean, Compound P3 PO 30 mg/kg, 1 h) of 99 and a Kp at 2 h ([1]; male, hamster, in vivo, po, 30 mg/kg, Mean, Compound P3 PO 30 mg/kg, 2 h) of 98. It also gave a Kp at 4 h ([1]; male, hamster, in vivo, po, 30 mg/kg, Mean, Compound P3 PO 30 mg/kg, 4 h) of 129, a Kp at 8 h ([1]; male, hamster, in vivo, po, 30 mg/kg, Mean, Compound P3 PO 30 mg/kg, 8 h) of 232 and a Kp at […] ([1]; male, hamster, in vivo, po, 30 mg/kg, Mean, Compound P3 PO 30 mg/kg) of 32.3. For the same molecule, the IC50 ([2]; Chlorocebus sabaeus, Vero C1008, 72 h, read-out: IC50 (μM) cell viability) was 7.21 µM, the Efficacy cell viability ([2]; uninfected Vero-E6, 72 h, CellTiter-Glo) was −99.8 and the “AUC_% Extrap” value ([3]; PO 50 mg/kg (PO_A), Mean n = 3) was 33.5%. The AUClast [3, 14] was 12332 ng·h/mL and 10489 ng·h/mL, the Cmax [3, 14] was 1920 ng/mL and 1560 ng/mL and the Tmax [3, 14] was 0.500 h. For the same molecule, the t1/2 [3, 14] was 3.70 h, the “AUC_% Extrap” value ([3]; PO 100 mg/kg (PO_B), Mean n = 3) was 28.2% and the AUCInf [3, 15] was 33619 ng·h/mL and 24577 ng·h/mL and 56087 ng·h/mL. The “AUC_% Extrap” value [3, 15] was 22.7% and 23.7% and 38.3%, the AUClast [3, 15] was 18757 ng·h/mL and 34617 ng·h/mL and the Cmax [3, 15] was 2340 ng/mL and 3880 ng/mL. The t1/2 [3, 15] was 13.8 h and 19.8 h.
